Earlier results in patent publication US20230355898A1, “NEBULIZER AND NEBULIZED ANTI-VIRALS” (priority 2020, published 2023).
Counter-ions that a name gives are not always drawn. Like-named read-outs stand apart in the source and are kept apart here.

Assays:
[1] = test system: SARS-CoV-2; details: for SARS-CoV-2 viral load measured by RT-qPCR of the viral N transcript: COVID-19 hamster model, Intraperitoneal (IP) administration; for prophylactic efficacy in reducing SARS-CoV-2 infection: hamsters, 50 mg/kg SC QD, virus intranasal or by association with nasally infected animals; for reduction in viral load or change in disease progression: Rosenke
[2] = test system: SARS-CoV-2 pseudoparticulates; details: drug at human blood maximum concentrations in fluid and airway channels; Si, 2020
[3] = test system: SARS-CoV-2 pseudoparticulates (pp); details: Huh-7, SARS-CoV-2pp, concurrent treatment, Si, 2020
[4] = test system: SARS-CoV-2; details: Vero 6, SARS-Cov-2, pretreatment; Si, 2020; read-out: Inhibition of infection IC50
[5] = test system: SARS-CoV-2; details: read-out: Viral Replication EC50 @ 48 hr, Vero 6, Concurrent, Wang, 2020
[6] = free base; PubChem
[7] = not given; remark: listed apart in the source
[8] = rat, in vivo
[9] = test system: SARS-CoV-2; details: Rhesus Macaque, Rosenke, 2020
[10] = four-route infection on day 0, 6 mg/kg PO 12 18, 36, 60, 84 and 108 hours post-infection (therapeutic)
[11] = four-route infection on day 0, 6 mg/kg PO on days −9, −2, and 5 (prophylactic)

Q: What does the source list for `CCN(CC)Cc1cc(Nc2ccnc3cc(Cl)ccc23)ccc1O.Cl.Cl` [ADQ hydrochloride]?
A: SARS-CoV-2 viral load measured by RT-qPCR of the viral N transcript ([1]; Si, 2020): able to reduce; prophylactic efficacy in reducing SARS-CoV-2 infection [1]: effective; Inhibition of SARS-CoV-2pp entry into LAC epithelial cells (qPCR of viral mRNA) [2]: inhibited

Q: What does the source list for `CCN(CC)Cc1cc(Nc2ccnc3cc(Cl)ccc23)ccc1O` [ADQ, amodiaquine]?
A: T1/2 (human, in vivo, iv): 0.083 days; V2 (in vivo, iv): 39 L; Inhibition of viral entry: % entry @ 1 μM [3]: 10% entry @1 μM; Inhibition of viral entry: % entry @ 5 μM [3]: 30% entry @ 5 μM;; IC50 [4]: 10.3 µM; reduction in viral load on day 4 ([1]; Hamster, exposure of healthy animals to nasally infected animals on day 2, 50 mg/kg SC day 1 and days 2, 3, 4, Si, 2020): 90% reduction in; reduction in viral load on day 4 ([1]; Hamster, nasal infection on day 2, 50 mg/kg SC 1 day before infection and days 2, 3, 4, Si, 2020): 70% reduction in; prophylactic efficacy in reducing SARS-CoV-2 infection [1]: exhibit prophylactic efficacy

Q: For `CCN(CC)CCCC(C)Nc1ccnc2cc(Cl)ccc12.O=P(O)(O)O.O=P(O)(O)O` (stereo not drawn) [CQ phosphate], which “Inhibition of SARS-CoV-2pp entry into LAC epithelial cells (qPCR of viral mRNA)” value (shortened to “Inhibition … (qPCR of viral mRNA)”) [2] is on record?
A: The value was “lack of efficacy”.

Q: Which T1/2 (IV in humans) does the source give for `CCN(CC)CCCC(C)Nc1ccnc2cc(Cl)ccc12` (stereo not drawn) [CQ, chloroquine] here?
A: The T1/2 was 23.7 days.

Q: And the V2 (IV in humans)?
A: The V2 was 7,973 L.

Q: What about the “Inhibition of viral entry: % entry @ 1 μM” value [3] of the same molecule?
A: The value was 10% entry @ 1 μM.

Q: And the “Inhibition of viral entry: % entry @ 5 μM” value [3]?
A: The value was 50% entry @ 5 μM;.

Q: What about the EC50 [5] of the same molecule?
A: The EC50 was 1.13 µM.

Q: And the “Inhibition … (qPCR of viral mRNA)” value [2]?
A: Its value is “lack of efficacy”.

Q: What does the source list for `CCNCc1cc(Nc2ccnc3cc(Cl)ccc23)ccc1O` [DEAQ, desethylamodiaquine]?
A: IC50 [4]: 8.5 µM; Log P [6]: 2.3

Q: With `CCN(CCO)CCCC(C)Nc1ccnc2cc(Cl)ccc12` (stereo not drawn) [HCQ sulfate, hydroxychloroquine sulfate] as the molecule, how does the “clinical endpoints for asthma (Phase II)” value ([7]; nebulized) read?
A: The value was “did not meet its clinical endpoints”.

Q: What about the “tolerability of pulmonary doses” value ([7]; nebulized hypertonic 100 mg/mL, up to 20 mg QD) of the same molecule?
A: Its value is “well tolerated with minimal side effects”.

Q: And the “SARS-CoV-2 viral load measured by RT-qPCR of the viral N transcript” value ([1]; Si, 2020)?
A: The value was “ineffective”.

Q: And the “reduction in viral load on day 5” value ([1]; Hamster, exposure to nasally infected animals on day 2, 600 mg/kg IP day 1 and 50 mg/kg IP days 2, 3, 4, 5, Kapstein, 2020)?
A: The value was “ineffective”.

Q: And the “reduction in viral load or change in disease progression” value ([1]; Hamster, nasal infection on day 1, 50 mg/kg IP 1 hr after infection and days 2, 3 (therapeutic), 2020, 50 mg/kg)?
A: Its value is “ineffective”.

Q: And the “reduction in viral load or change in disease progression” value ([1]; Hamster, nasal infection on day 2, 50 mg/kg IP 1 day before infection and days 2, 3, 4 (prophylactic), 2020, 50 mg/kg)?
A: Its value is “ineffective”.

Q: And the “reduction in viral load on day 4” value ([1]; Hamster, nasal infection on day 2, 50 mg/kg IP 1 day before infection and days 2, 3, 4, Kapstein, 2020, 50 mg/kg)?
A: The value was “ineffective”.

Q: What about the “lung drug concentrations, IT versus IV solution” value [8] of the same molecule?
A: Its value is “higher lung drug concentrations”.

Q: What about the “Inhibition … (qPCR of viral mRNA)” value [2] of the same molecule?
A: Its value is “lack of efficacy”.

Q: What about the “effect upon viral loads at days 3, 5, or 7, or disease pathology through post-mortem on day 7” value [9, 10] of the same molecule?
A: Its value is “ineffective”.

Q: What about the “effect upon viral loads at days 3, 5, or 7, or disease pathology through post-mortem on day 7” value [9, 11] of the same molecule?
A: Its value is “ineffective”.

Q: Which results are given for `CCN(CCO)CCCC(C)Nc1ccnc2cc(Cl)ccc12` (stereo not drawn) [HCQ, hydroxychloroquine]?
A: T1/2 (human, in vivo, iv): 26.2 days; V2 (in vivo, iv): 26,711 L; Inhibition of viral entry: % entry @ 1 μM [3]: 30% entry @ 1 μM; Inhibition of viral entry: % entry @ 5 μM [3]: 50% entry @ 5 μM;; Log P [6]: 3.9; Inhibition of SARS-CoV-2pp entry into LAC epithelial cells (qPCR of viral mRNA) [2]: repeatedly failed; effect upon viral loads at days 3, 5, or 7, or disease pathology through post-mortem on day 7 [9, 10]: No effect upon viral; effect upon viral loads at days 3, 5, or 7, or disease pathology through post-mortem on day 7 [9, 11]: No effect upon viral
